Three molecules from patent US20220249441A1, “Homodimeric Tobramycin Adjuvant Repurposes Novobiocin as an Effective Antibacterial Agent Against Gram-Negative Bacteria” (priority 2019, published 2022) can be followed below.

Converted amounts (≈) assume the structure as drawn.

For one data set, the system named is A. baumannii ATCC 17978. The data set can be described thus: microbe, parasite or virus in culture. In kind it is cell-based, Acinetobacter baumannii. The following applies: for fold change in MIC: after 7 days of serial passaging. The method, then:
(§1) Development of Resistance Study. […] Tobramycin and colistin were included as controls. At 24-hour intervals, the cultures were assessed for growth. […] This serial passaging was repeated for 8 days.

The subject of data set [1] is A. baumannii ATCC 17978 and resistant mutants. Briefly: microbe, parasite or virus in culture. In kind it is cell-based, Acinetobacter baumannii. The method, then: Antimicrobial Susceptibility Assay. The in vitro antimicrobial activity of all compounds/antibiotics against a panel of bacteria was evaluated by microbroth dilution method in accordance with the Clinical and Laboratory Standards Institute (CLSI) guidelines (using ATCC strains as quality control strains) (54). Overnight grown bacterial cultures were diluted in saline to achieve a 0.5 McFarland turbidity, followed by 1:50 dilution in Mueller-Hinton broth (MHB) for inoculation to a final concentration of approximately 5×10^5 CFU/mL. […] The lowest concentration that prevented the visible growth of bacteria was defined as the MIC for each antimicrobial agent. The broth with or without bacterial cells was used as positive or negative control, respectively.
as §1

The test system of the next data set is Galleria mellonella. The data set can be described thus: Galleria mellonella tolerability study. In kind it is in vivo. The conditions noted are these: 100 mg/kg single dose; after 96 h (4 days). The method, then:
Galleria mellonella In vivo Larvae-Infection Model. In vivo synergistic effects were determined using Galleria mellonella infection model, as previously described (49). Briefly, larvae were purchased from The Worm Lady Live Feeder (ON, Canada), stored in their natural habitat at 16° C., and used within 10 days of delivery. The larvae (average weight of 250 mg) were used for tolerability and efficacy studies. Tolerability study was performed by injecting a 10 μL aliquot of antimicrobial agents only at concentrations equivalent to 100 mg/kg or 200 mg/kg. The larvae (ten in each group) were incubated at 37° C. and monitored for 96 h. For efficacy studies, the virulence and bacterial load required to kill 100% of the larvae within 24 h (with no treatment) was first determined, which is approximately 10 CFU. Overnight grown culture of respective MDR A. baumannii isolate was standardized to 0.5 McFarland standard and diluted in PBS to a final concentration of 10^3 CFU/mL. A 10 μL aliquot of this solution (˜10 CFU) was injected into each larva and incubated for 3 h at 37° C. […] Larvae treated with 10 μL of PBS or high concentrations of test antibiotics served as negative and positive control, respectively. The larvae were incubated at 37° C. in Petri dishes lined with filter paper and scored for survivability every 6 h for up to 36 h. […]

Data set [2] relates to MDR/XDR P. aeruginosa, Acinetobacter baumannii, Escherichia coli, Klebsiella pneumoniae, and Enterobacter cloacae. In kind it is cell-based. The method, then:
Next, we investigated whether tobramycin by itself would potentiate novobiocin against Gram-negative bacteria.
Checkerboard Assay. Combination studies with different antibiotics were performed in 96-well plates as previously described (19). Briefly, the antibiotic of interest was serially diluted in MHB along the abscissa while the adjuvant (tobramycin homodimer) was serially diluted in MHB along the ordinate. This creates a 10×7 matrices wherein each well consists of a combination of different antibiotic and adjuvant concentrations. Overnight grown bacterial cultures were diluted in saline to achieve a 0.5 McFarland turbidity, followed by 1:50 dilution in Mueller-Hinton broth (MHB) for inoculation to a final concentration of approximately 5×10^5 CFU/mL. […] MIC was recorded as wells with the lowest concentration of drugs with no bacterial growth. The fractional inhibitory concentration (FIC) for each antibiotic was calculated by dividing the MIC of the antibiotic in the presence of adjuvant by the MIC of the antibiotic alone. Similarly, the FIC of adjuvant was calculated by dividing the MIC of the adjuvant in the presence of antibiotic by the MIC of the adjuvant alone. FIC index is the sum of both FICs. FIC indices of ≤0.5 were deemed synergistic; >0.5-4, no interaction; and >4, antagonistic.

The subject of another data set is P. aeruginosa. Briefly: Checkerboard assay (antibiotic + adjuvant combination MIC). The data set is classed as cell-based, Pseudomonas aeruginosa.
The next data set relates to P. aeruginosa PAO1. Briefly: Outer membrane permeabilization assay (NPN uptake). In kind it is cell-based, Pseudomonas aeruginosa. On the procedure: Outer Membrane Permeabilization Assay. […] Briefly, an overnight grown P. aeruginosa PAO1 culture was subcultured (1 in 100) in fresh LB broth and grown to a mid-logarithmic phase (approximately 2 h, OD600=0.5-0.6). The cells were harvested by centrifuging for 10 min at 1000 g and room temperature, washed twice in PBS, and resuspended in half volume of PBS. This suspension was used in standard microtiter plate assay. […] PMBN, a known outer membrane permeabilizer, served as a positive control while cells +NPN (without test compounds) served as a negative control. Four independent replicates were conducted, and the data were corrected for any background fluorescence.

Data set [3] relates to P. aeruginosa PAO1 and efflux deficient mutants, MDR/XDR isolates. The data set can be described thus: microbe, parasite or virus in culture. The data set is classed as cell-based, Pseudomonas aeruginosa. The conditions noted are these: Pseudomonas aeruginosa. The method, then:
Antimicrobial Susceptibility Assay. The in vitro antimicrobial activity of all compounds/antibiotics against a panel of bacteria was evaluated by microbroth dilution method in accordance with the Clinical and Laboratory Standards Institute (CLSI) guidelines (using ATCC strains as quality control strains) (54). […] The broth with or without bacterial cells was used as positive or negative control, respectively.

Setting [4] is: Acinetobacter baumannii, ATCC17978, 18 h, Mutant C (seven serial passages, sub-MICs novobiocin + 7.1 μM compound 1).
Setting [5] is: Acinetobacter baumannii, ATCC17978, Mutant A (seven serial passages, sub-MICs novobiocin).
[6] abbreviates: Acinetobacter baumannii, ATCC17978, Mutant B (seven serial passages, sub-MICs colistin).
Where [7] appears, read: Acinetobacter baumannii, ATCC17978, Wild-type A. baumannii ATCC 17978.
[8] abbreviates: tobramycin-resistant MDR/XDR isolates.

Colistin: the “fold change in MIC” value with A. baumannii ATCC 17978 turned out to be 1024 fold. The MIC was 8 µg/mL in data set [1] (Mutant A (seven serial passages, sub-MICs novobiocin)); 1024 µg/mL in data set [1] (Mutant B (seven serial passages, sub-MICs colistin)); 0.031 µg/mL in data set [1] (Mutant C (seven serial passages, sub-MICs novobiocin + 7.1 μM compound 1)); 0.063 µg/mL in data set [1] (Wild-type A. baumannii ATCC 17978). In the data set on Galleria mellonella, the “larvae killed (mortality)” value stood at 90%.

As to `CC(C)(O/N=C(\C(=O)N[C@@H]1C(=O)N2C(C(=O)[O-])=C(C[n+]3ccccc3)CS[C@H]12)c1csc(N)n1)C(=O)O` [Ceftazidime, reference compound], the synergy with novobiocin entry in data set [2] (Gram-negative bacteria) is recorded as “did not show any synergy”. The MIC is 16 µg/mL in data set [1] (setting [4]), 32 µg/mL (≈ 58.5 µM) in data set [1] (setting [5]), 1 µg/mL (≈ 1.83 µM) in data set [1] (setting [6]) and 16 µg/mL (≈ 29.3 µM) in data set [1] (setting [7]). The MIC Alone in the data set on P. aeruginosa (P. aeruginosa PAO1, β-lactam antibiotic alone) was determined as 2 µg/mL. Further, the MIC of CAZ alone with P. aeruginosa (PA 259-96918) worked out at 512 µg/mL; in the data set with P. aeruginosa (PA 260-97103), 32 µg/mL; in the data set with P. aeruginosa (PA 262-101856) it was 16 µg/mL; in the data set on P. aeruginosa (PA 264-104354), 128 µg/mL; with P. aeruginosa (PA 86052), 64 µg/mL; with P. aeruginosa (PA 88949) it was 64 µg/mL. In addition, the MIC of CAZ alone was 4 µg/mL in the data set on P. aeruginosa (PA 91433); 8 µg/mL with P. aeruginosa (PA 100036); 64 µg/mL in the data set with P. aeruginosa (PA 101243); 8 µg/mL with P. aeruginosa (PA 101885); 128 µg/mL in the data set on P. aeruginosa (PA 107092); 32 µg/mL with P. aeruginosa (PA 108590). The MIC of CAZ alone in the data set on P. aeruginosa (PA 109084) was determined as 64 µg/mL; in the data set on P. aeruginosa (PA 114228), 8 µg/mL; with P. aeruginosa (PAO1), 2 µg/mL; in the data set on P. aeruginosa (PAO200 (efflux-deficient)) it was 1 µg/mL; with P. aeruginosa (PAO750 (efflux-deficient)), 0.5 µg/mL.

For `NC[C@H]1O[C@H](O[C@H]2[C@H](O)[C@@H](O[C@H]3O[C@H](CO)[C@@H](O)[C@H](N)[C@H]3O)[C@H](N)C[C@@H]2N)[C@H](N)C[C@@H]1O` [Tobramycin], in data set [2] (tobramycin-susceptible and tobramycin-resistant Gram-negative bacteria strains), the FICI with novobiocin is given as 0.75. Besides, the MIC with A. baumannii ATCC 17978 (Acinetobacter baumannii, ATCC17978, 168 h, read-out: MIC after serial passaging) was 512 µg/mL (≈ 1100 µM); in data set [1] (setting [4]) it was 1 µg/mL; in data set [1] (setting [5]), 1 µg/mL (≈ 2.14 µM); in data set [1] (setting [6]), 0.25 µg/mL (≈ 0.535 µM); in data set [1] (setting [7]), 1 µg/mL (≈ 2.14 µM); in data set [3] it was 1 µg/mL (≈ 2.14 µM). Besides, the MIC in data set [3] (PAO200 (first column so headed)) and in data set [3] (PAO200 (second column so headed)) was 1 µg/mL (≈ 2.14 µM) in each case. For the same molecule, the “fold change in MIC” value in the data set with A. baumannii ATCC 17978 was 512 fold. The “outer membrane permeabilization (NPN fluorescence)” value in the data set with P. aeruginosa PAO1 is “weak fluorescence”. Also, the “interaction with antibiotics (checkerboard)” value with P. aeruginosa (PAO1, all antibiotics tested except tobramycin, vancomycin and colistin) was “not synergistic”. Moreover, the “FICI with ceftazidime or aztreonam” value in the data set with P. aeruginosa (setting [8]) was 0.56-0.75. For the same molecule, the “tobramycin concentration at which synergy with imipenem was observed” value in the data set on P. aeruginosa (setting [8]) was at least 100 µM. In addition, the “FICI with aztreonam, ceftazidime and imipenem” value with P. aeruginosa (tobramycin-susceptible MDR isolates) is 0.75; in the data set on P. aeruginosa (wildtype P. aeruginosa), 0.75-1.00.
